In patent publication US6944493B2 (priority 1999, dated 2005):

How the values were obtained:
Viscosity evaluation = assay type: physicochemical; conditions: ICG 50 mg/ml to 75 mg/ml, WFI as the lone diluent

Compound	consistency of composition (Viscosity evaluation)	solubility in WFI versus inventive diluent (lyophilized (amorphous) material)	solubility in WFI (non-lyophilized, crystalline material)
CC1(C)C(/C=C/C=C/C=C/C=C2\N(CCCCS(=O)(=O)O)c3ccc4ccccc4c3C2(C)C)=[N+](CCCCS(=O)(=O)[O-])c2ccc3ccccc3c21 [ICG, Indocyanine green]	paste-like consistency	comparable up to 25 mg/ml, wherein the inventive diluent is superior at concentrations above that level	–
CC1(C)C(/C=C/C=C/C=C/C=C2\N(CCCCS(=O)(=O)O)c3ccc4ccccc4c3C2(C)C)=[N+](CCCCS(=O)(=O)[O-])c2ccc3ccccc3c21 [crystalline ICG, Indocyanine green]	–	–	low solubility in WFI
